Results taken from US5223515A, “Injectable solution containing a pyridyl methylsulfinylbenzimidazole” (Takeda Chemical Industries, Ltd., priority 1988, dated 1993).
In brackets after ≈: the same amount, converted by molar mass.

Tests used:
[1] = Example 4 / Table 4: stability of lyophilized Compound (I-1) after being dissolved in vials; format: physicochemical; conditions: for Solubility: lyophilized powder
Experimental: A 1000 mg quantity of Compound (I-1) was dispersed in distilled water for
injection, and 3 ml of 1N-aqueous sodium hydroxide solution was added to
dissolve the Compound (I-1), followed by addition of water to make up the
total of 50 ml and sterile filtration by the conventional method. The
resulting filtrate was filled in 1 ml portions into vials of a 12 cm^3
capacity, followed by lyophilization by means of the conventional
technique. The lyophilized powder as contained in vials was dissolved in
in Solvent A (which was composed of 50 mg of N-methylglucamine, 0.27 ml of
1N-hydrochloric acid and 2 ml of propylene glycol being admixed with
ethanol to make up the total of 4 ml), Solvent B (which was composed of 50
mg of N-methylglucamine, 0.27 ml of 1N-hydrochloric acid, 1.2 ml of
polyethylene glycol 400 and 1.2 ml of ethanol being admixed with distilled
water for injection to make up the total of 4 ml), Solvent C (which was
composed of 50 mg of N-methylglucamine, 0.27 ml of 1N-hydrochloric acid,
1.2 ml of ethanol and 1.2 ml of propylene glycol being admixed with
distilled water for injection to make up the total of 4 ml and Solvent D
(which was composed of 50 mg of N-methylglucamine, 0.27 ml of
1N-hydrochloric acid and 2.5 ml of polyethylene glycol 400 bing admixed
with distilled water for injection to make up the total of 4 ml),
respectively, to perform inspection for their solubilities as well as to
conduct investigation into appearance, clarity and contents immediately
after dissolution and after storage at 25° C. for 24 hours.

[2] = Example 2 / Table 2: stability of Compound (I-1) in the solution state (2 mg/ml, mixed solvents); format: physicochemical
Experimental: Ethanol, polyethylene glycol 400, propylene glycol and water were mixed at the composition ratios as shown in Table 2 illustrated below, and 2 mg of Compound (I-1) was dissolved in 1 ml each of the resulting solvents, respectively, followed by adjustment to pH 9.0 with 5N-aqueous sodium hydroxide solution. As a control, there were prepared a suspension of 2 mg of Compound (I-1) in 1 ml of water being adjusted to pH 9.0 with 5N-aqueous sodium hydroxide solution and an aqueous solution of 2 mg of Compound (I-1) in 1 ml of 0.01N aqueous sodium hydroxide solution.

[3] = Example 3 / Table 3: stability of Compound (I-1) in the solution state (5 mg/ml, mixed solvents); format: physicochemical
Experimental: Ethanol, polyethylene glycol 400, propylene glycol and water were mixed at the composition ratios as shown in Table 3 illustrated below, and 5-mg of Compound (I-1) was dissolved in 1 ml each of the resulting solvents, respectively, followed by adjustment to pH 9.0 with 5N-aqueous sodium hydroxide solution. As a control, there were prepared a suspension of 5 mg of Compound (I-1) in 1 ml of water being adjusted to pH 9.0 with 5N-aqueous sodium hydroxide solution and an aqueous solution of 5 mg of Compound (I-1) in 1 ml of 0.02N aqueous sodium hydroxide solution. […] (A control of the suspension was not subjected to sterile-filtration).
These test specimens as filled into ampoules were investigated for each item of appearance, pH and clarity immediately after preparation and after storage at 25° C.

[4] = Stability of Compound (I-1) in aqueous solution; format: physicochemical
[5] = Example 1 / Table 1: stability of Compound (I-1) in the solution state (ethanol, propylene glycol); conditions: for Content: HPLC
Text: Note, *As measured by use of highperformance liquid chromatography (HPLC)
chromatographic conditions of HPLC:
Carrier; Nucleosil 5 C18 (supplied by GasChro Kogyo K.K. of Japan)
Solvent; Methanol:water:triethylamine (60:40:1, pH 7)
Detection method; UV spectrophotometry at 285 nm

[6] = Solubility of Compound (I-1) in water at different pH; format: physicochemical
[7] = Solvent A, after storage at 25° C. for 24 hrs.
[8] = Solvent B, after storage at 25° C. for 24 hrs.
[9] = Solvent C, after storage at 25° C. for 24 hrs.
[10] = Solvent D, after storage at 25° C. for 24 hrs.
[11] = Solvents A-D, after storage for 24 hours
[12] = control: 2 mg in 0.01 N aq. sodium hydroxide 1 ml, after preparation
[13] = control: 2 mg in 0.01 N aq. sodium hydroxide 1 ml, after storage at 25° C./24 hrs.
[14] = 5 mg, PEG-400 0.3 ml, ethanol 0.3 ml, water 0.4 ml, after preparation
[15] = 5 mg, PEG-400 0.4 ml, water 0.6 ml, after preparation
[16] = 5 mg, ethanol 0.3 ml, propylene glycol 0.3 ml, water 0.4 ml, after preparation
[17] = 5 mg, ethanol 0.6 ml, water, after preparation
[18] = control: 5 mg in 0.02 N aq. sodium hydroxide 1 ml, after preparation
[19] = control: 5 mg in 0.02 N aq. sodium hydroxide 1 ml, after storage at 25° C./24 hrs.
[20] = 2 mg in ethanol 1 ml, after preparation
[21] = 2 mg in ethanol 1 ml, after storage at 25° C./24 hrs.
[22] = 2 mg in propylene glycol 1 ml, after preparation
[23] = 2 mg in propylene glycol 1 ml, after storage at 25° C./24 hrs.

Cc1c(OCC(F)(F)F)ccnc1C[S+]([O-])c1nc2ccccc2[nH]1 (centres unmarked) [Compound (I-1), 2-(3-methyl-4-trifluoroethoxy-2-pyridyl)methylsulfinylbenzimidazole]
pH after dissolution ([1]; Solvent A): 8.7
Appearance ([1]; Solvent A, after dissolution): Colorless
Clarity ([1]; Solvent A, after dissolution): Clear
Content ([1]; Solvent A, after dissolution (taken as 100%)): 100%
Clarity [1, 7]: Clear
Content [1, 7]: 97.0%
pH after dissolution ([1]; Solvent B): 9.0
Appearance ([1]; Solvent B, after dissolution): Colorless
Clarity ([1]; Solvent B, after dissolution): Clear
Content ([1]; Solvent B, after dissolution (taken as 100%)): 100%
Clarity [1, 8]: Clear
Content [1, 8]: 96.5%
pH after dissolution ([1]; Solvent C): 9.0
Appearance ([1]; Solvent C, after dissolution): Colorless
Clarity ([1]; Solvent C, after dissolution): Clear
Content ([1]; Solvent C, after dissolution (taken as 100%)): 100%
Clarity [1, 9]: Clear
Content [1, 9]: 96.7%
pH after dissolution ([1]; Solvent D): 9.0
Appearance ([1]; Solvent D, after dissolution): Colorless
Clarity ([1]; Solvent D, after dissolution): Clear
Content ([1]; Solvent D, after dissolution (taken as 100%)): 100%
Clarity [1, 10]: Clear
Content [1, 10]: 96.1%
Appearance ([1]; Solvents A, B, C, D (one spanning entry), after storage at 25° C. for 24 hrs.): Slightly to lightly green-yellow
change in content [1, 11]: decrease slightly
change in the clarity [1, 11]: no change
changes in appearance ([1]; Solvents A-D, immediately after dissolution and after storage for 24 hours): slight changes
dissolution of lyophilized powder ([1]; all of these solvents (A-D)): dissolved quickly
solubilities of lyophilized powder ([1]; all of these solvents (A-D)): excellent solubilities
Solubility ([1]; Solvent A (propylene glycol/ethanol)): Good
Solubility ([1]; Solvent B (PEG 400/ethanol/water)): Good
Solubility ([1]; Solvent C (ethanol/propylene glycol/water)): Good
Solubility ([1]; Solvent D (PEG 400/water)): Good
Appearance ([2]; 2 mg, PEG-400 0.05 ml, ethanol 0.35 ml, water 0.6 ml, after preparation): Colorless
pH ([2]; 2 mg, PEG-400 0.05 ml, ethanol 0.35 ml, water 0.6 ml, after preparation (adjusted)): 9.0
Content ([2]; 2 mg, PEG-400 0.05 ml, ethanol 0.35 ml, water 0.6 ml, after preparation (taken as 100.0%)): 100.0%
Content ([2]; 2 mg, PEG-400 0.05 ml, ethanol 0.35 ml, water 0.6 ml, after storage at 25° C./24 hrs.): 98.0%
Appearance ([2]; 2 mg, PEG-400 0.05 ml, propylene glycol 0.35 ml, water 0.6 ml, after preparation): Colorless
pH ([2]; 2 mg, PEG-400 0.05 ml, propylene glycol 0.35 ml, water 0.6 ml, after preparation (adjusted)): 9.0
Content ([2]; 2 mg, PEG-400 0.05 ml, propylene glycol 0.35 ml, water 0.6 ml, after preparation (taken as 100.0%)): 100.0%
Content ([2]; 2 mg, PEG-400 0.05 ml, propylene glycol 0.35 ml, water 0.6 ml, after storage at 25° C./24 hrs.): 94.4%
Appearance ([2]; 2 mg, PEG-400 0.4 ml, water 0.6 ml, after preparation): Colorless
pH ([2]; 2 mg, PEG-400 0.4 ml, water 0.6 ml, after preparation (adjusted)): 9.0
Content ([2]; 2 mg, PEG-400 0.4 ml, water 0.6 ml, after preparation (taken as 100.0%)): 100.0%
Content ([2]; 2 mg, PEG-400 0.4 ml, water 0.6 ml, after storage at 25° C./24 hrs.): 91.8%
Appearance ([2]; 2 mg, ethanol 0.5 ml, propylene glycol 0.5 ml, after preparation): Colorless
pH ([2]; 2 mg, ethanol 0.5 ml, propylene glycol 0.5 ml, after preparation (adjusted)): 9.0
Content ([2]; 2 mg, ethanol 0.5 ml, propylene glycol 0.5 ml, after preparation (taken as 100.0%)): 100.0%
Content ([2]; 2 mg, ethanol 0.5 ml, propylene glycol 0.5 ml, after storage at 25° C./24 hrs.): 98.0%
dissolution of control specimens ([2]; control in water adjusted to same pH as other test specimens, 2 mg/ml): failed to allow adequate dissolution
pH needed to secure dissolution of control specimens ([2]; control, 2 mg/ml): not less than 11
Appearance [2, 12]: Colorless
pH [2, 12]: 11.4
Content ([2]; control: 2 mg in 0.01 N aq. sodium hydroxide 1 ml, after preparation (taken as 100.0%)): 100.0%
Appearance [2, 13]: Colorless
Content [2, 13]: 92.5%
pH ([2]; control: 2 mg in water 1 ml, after preparation (adjusted)): 9.1
Appearance [3, 14]: Colorless
Clarity [3, 14]: Clear
pH ([3]; 5 mg, PEG-400 0.3 ml, ethanol 0.3 ml, water 0.4 ml, after preparation (adjusted)): 9.0
Clarity ([3]; 5 mg, PEG-400 0.3 ml, ethanol 0.3 ml, water 0.4 ml, after storage at 25° C./24 hrs.): Clear
Appearance [3, 15]: Colorless
Clarity [3, 15]: Clear
pH ([3]; 5 mg, PEG-400 0.4 ml, water 0.6 ml, after preparation (adjusted)): 9.0
Clarity ([3]; 5 mg, PEG-400 0.4 ml, water 0.6 ml, after storage at 25° C./24 hrs.): Clear
Appearance [3, 16]: Colorless
Clarity [3, 16]: Clear
pH ([3]; 5 mg, ethanol 0.3 ml, propylene glycol 0.3 ml, water 0.4 ml, after preparation (adjusted)): 9.0
Clarity ([3]; 5 mg, ethanol 0.3 ml, propylene glycol 0.3 ml, water 0.4 ml, after storage at 25° C./24 hrs.): Clear
Appearance [3, 17]: Colorless
Clarity [3, 17]: Clear
pH ([3]; 5 mg, ethanol 0.6 ml, water, after preparation (adjusted)): 9.0
Clarity ([3]; 5 mg, ethanol 0.6 ml, water, after storage at 25° C./24 hrs.): Clear
dissolution of control specimens ([3]; control in water adjusted to same pH as other test specimens, 5 mg/ml): failed to allow adequate dissolution
pH needed to secure dissolution of control specimens ([3]; control, 5 mg/ml): not less than 11
Appearance [3, 18]: Colorless
Clarity [3, 18]: Clear
pH [3, 18]: 11.6
Appearance [3, 19]: Colorless
Clarity [3, 19]: Clear
pH ([3]; control: 5 mg in water 1 ml, after preparation (adjusted)): 8.9
stability in an aqueous solution ([4]; alkaline solution): satisfactorily stable
appearance of aqueous solution ([4]; neutral to acidic range, short period of time): dark purple
stability in an aqueous solution ([4]; pH decreased to the neutral to acidic range): less stable
Appearance [5, 20]: Colorless
Clarity [5, 20]: Clear
Content ([5]; 2 mg in ethanol 1 ml, after preparation (taken as 100.0%)): 100.0%
Appearance [5, 21]: Yellowish
Clarity [5, 21]: Clear
Content [5, 21]: 99.2%
Appearance [5, 22]: Colorless
Clarity [5, 22]: Clear
Appearance [5, 23]: Light red-purple
Clarity [5, 23]: Clear
change in appearance ([5]; ethanol and propylene glycol, after storage at 25° C. for 24 hours): slight change
Solubility ([6]; pH 11, water): 1 mg/mL (≈ 2.71 mM)
Solubility ([6]; pH 13, water): 33 mg/mL (≈ 89.3 mM)
